Laboratory results reported in ChEMBL document CHEMBL3046560, “Steroidal saponins from the leaves of Yucca de-smetiana and their in vitro antitumor activity: structure activity relationships through a molecular modeling approach” (Med Chem Res, 2013).

Columns and labels:
[1] = test system: HCT-116; experiment: Antitumor activity against Homo sapiens (human) HCT116 cells assessed as cell growth inhibition after 48 hr by MTT assay; type: functional, cell-based
[2] = test system: MCF7; experiment: Antitumor activity against Homo sapiens (human) MCF7 cells assessed as cell growth inhibition after 48 hr by MTT assay; type: functional, cell-based
[3] = test system: A549; experiment: Antitumor activity against Homo sapiens (human) A549 cells assessed as cell growth inhibition after 48 hr by MTT assay; type: functional, cell-based
[4] = test system: HepG2; experiment: Antitumor activity against Homo sapiens (human) HepG2 cells assessed as cell growth inhibition after 48 hr by MTT assay; type: functional, cell-based
[5] = test system: MCF7; experiment: Ratio of doxorubicin IC50 to compound IC50 for Homo sapiens (human) MCF7 cells; type: functional
[6] = test system: HepG2; experiment: Ratio of doxorubicin IC50 to compound IC50 for Homo sapiens (human) HepG2 cells; type: functional
[7] = Homo sapiens, HCT-116, 48 h, read-out: IC50
[8] = Homo sapiens, A549, 48 h, read-out: IC50
[9] = Homo sapiens, HepG2, 48 h, read-out: IC50
[10] = Homo sapiens, MCF7, 48 h, read-out: IC50

Row | Compound | IC50 ([1]; hct-116) | IC50 ([2]; mcf7) | IC50 ([3]; a549) | IC50 ([4]; hepg2) | IC50 [1, 7] [µM] | IC50 [3, 8] [µM] | IC50 [4, 9] [µM] | Ratio IC50 [5] | growth inhibition (GI) [1] | growth inhibition (GI) [2] | IC50 [2, 10] [µM] | growth inhibition (GI) [3] | growth inhibition (GI) [4] | Ratio IC50 [6]
1 | CO[C@]1(CC[C@H](C)CO[C@@H]2O[C@H](CO)[C@@H](O)[C@H](O)[C@H]2O)O[C@H]2C[C@H]3[C@@H]4CC[C@@H]5C[C@@H](O[C@@H]6O[C@H](CO)[C@@H](O)[C@H](O)[C@H]6O[C@@H]6O[C@H](CO)[C@H](O)[C@H](O)[C@H]6O)CC[C@]5(C)[C@H]4CC[C@]3(C)[C@H]2[C@@H]1C | Not Active | Not Active | Not Active | Not Active |  |  |  |  |  |  |  |  |  | 
2 | C[C@@H](CC[C@@]1(O)O[C@H]2C[C@H]3[C@@H]4CC[C@@H]5C[C@@H](O[C@@H]6O[C@H](CO)[C@@H](O)[C@H](O)[C@H]6O[C@@H]6O[C@H](CO)[C@H](O)[C@H](O)[C@H]6O)CC[C@]5(C)[C@H]4CC[C@]3(C)[C@H]2[C@@H]1C)CO[C@@H]1O[C@H](CO)[C@@H](O)[C@H](O)[C@H]1O | Not Active | Not Active | Not Active | Not Active |  |  |  |  |  |  |  |  |  | 
3 | COc1cccc2c1C(=O)c1c(O)c3c(c(O)c1C2=O)C[C@@](O)(C(=O)CO)C[C@@H]3O[C@H]1C[C@H](N)[C@H](O)[C@H](C)O1 [DOXORUBICIN] |  |  |  |  | 6.86 | 0.84 | 7.36 |  |  |  |  |  |  | 
4 | C[C@@H]1CC[C@@]2(OC1)O[C@H]1C[C@H]3[C@@H]4CC[C@@H]5C[C@@H](O[C@@H]6O[C@H](CO)[C@H](O[C@@H]7O[C@H](CO)[C@@H](O)[C@H](O[C@@H]8O[C@H](CO)[C@@H](O)[C@H](O)[C@H]8O)[C@H]7O[C@@H]7O[C@H](CO)[C@H](O)[C@H](O)[C@H]7O[C@@H]7OC[C@@H](O)[C@H](O)[C@H]7O)[C@H](O)[C@H]6O)CC[C@]5(C)[C@H]4CC[C@]3(C)[C@H]1[C@@H]2C [Desmettianoside C] |  |  |  |  | 2.4 | 10.2 | 1.1 | 2 | Dose-dependent effect | Dose-dependent effect | 2.6 | Dose-dependent effect | Dose-dependent effect | 
5 | C[C@@H]1CC[C@@]2(OC1)O[C@H]1C[C@H]3[C@@H]4CC[C@@H]5C[C@@H](O[C@@H]6O[C@H](CO)[C@@H](O)[C@H](O)[C@H]6O[C@@H]6O[C@H](CO)[C@H](O)[C@H](O)[C@H]6O)CC[C@]5(C)[C@H]4CC[C@]3(C)[C@H]1[C@@H]2C |  |  |  |  | 4.4 | 16.5 | 3.5 |  | Dose-dependent effect | Dose-dependent effect | 4 | Dose-dependent effect | Dose-dependent effect | 2
